Results on 1 molecule are retold here after publication doi:10.1101/2022.12.26.521971v1 (biorxiv, 2022).

The target in this assay is rNTSR1 (wild-type rat Neurotensin Receptor 1) (Rattus norvegicus, UniProt P20789). Kind of assay: cell-based. On the set-up: species or system HEK293T.

Structures are written as SMILES.

Sequence of rNTSR1 (wild-type rat Neurotensin Receptor 1) (P20789 whole entry): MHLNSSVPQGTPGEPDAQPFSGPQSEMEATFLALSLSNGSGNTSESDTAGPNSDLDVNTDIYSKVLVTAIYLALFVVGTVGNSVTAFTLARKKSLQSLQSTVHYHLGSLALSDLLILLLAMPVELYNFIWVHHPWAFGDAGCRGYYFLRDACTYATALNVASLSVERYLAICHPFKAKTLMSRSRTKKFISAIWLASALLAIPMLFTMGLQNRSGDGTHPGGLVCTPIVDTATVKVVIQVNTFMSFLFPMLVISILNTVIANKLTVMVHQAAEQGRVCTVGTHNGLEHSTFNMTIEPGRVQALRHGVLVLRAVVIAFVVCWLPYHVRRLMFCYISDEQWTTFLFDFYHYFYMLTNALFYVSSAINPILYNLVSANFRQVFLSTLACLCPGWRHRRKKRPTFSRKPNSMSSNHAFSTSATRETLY

In turn, `COc1cc2nc(C3CC3)nc(N3CCN(c4ccccc4OC)CC3)c2cc1OC` [ML314] had a Kb of 776 nM.
